# Assay results from patent US7981867B2, “Use of des-aspartate-angiotensin I” (priority 2005, dated 2011).
# Values joined by “and” are separate entries in the source; they are usually repeats but may differ in a detail not shown here. Equal values may be shown once. Read-outs that look alike come from different tables or passages of the source.
# Tests used:
# [1] = tested on: Influenza A/Aichi/2/68 virus; format: in vivo, BALB/c mice
# diabetic KKAy mice = test: Oral glucose tolerance test in diabetic KKAy mice, oral treatment; format: in vivo; design: Serum glucose level: unit not given here; conditions: for Serum glucose level: oral glucose tolerance test
# Description: (§1) A dose-range finder experiment to determine the hypoglycaemic dose for orally administered des-aspartate-angiotensin I was also carried out. In this experiment, the animals in each of the three treatment groups of 7 diabetic KKAy mice were orally administered (by gavage) 200, 400, and 600 nmole/kg/day des-aspartate-angiotensin I in volume of 0.1 mL, respectively. Animals in the control group were similarly administered 0.1 mL water. The treatment period was 4 weeks. Oral glucose tolerance test was carried out as described in Example 5, except that blood was sampled at 0 and 30 min.
# as §1, with “In” for “A dose-range finder experiment to determine the hypoglycaemic dose for orally administered des-aspartate-angiotensin I was also carried out. In”, “mL water,” for “mL,”, “EXAMPLE 7,” for “Example 5,”
# [2] = tested on: Influenza A/Aichi/2/68 virus; format: in vivo, BALB/c mice; conditions: for Percentage Weight Change of Individual Mouse: i.p. 60 nmole/kg for 7 days from weight loss 15% or greater, mice 1-7 = c8-c14
# GLUT4 = test: Insulin-induced translocation of GLUT4 to plasma membrane in skeletal muscle of diabetic GK rats; format: in vivo; conditions: oral treatment for 9 weeks; insulin 0.5 U/kg i.p., 30 minutes; Western blot
# Source text: Upper panel: Representative Western blot of plasma membrane GLUT4 in skeletal muscle of des-aspartate-angiotensin I treated and non treated diabetic GK rats. Lower panel: Relative (to the non insulin stimulated samples) levels of plasma membrane GLUT4 in skeletal muscle of des-aspartate-angiotensin I treated and control diabetic GK rats.
# The diabetic GK rats described in EXAMPLE 9 were similarly treated for another week. At 9 weeks of treatment, animals were fasted overnight and half the animals in each group were intraperitoneally administered with PBS and the other half with insulin (0.5 U/kg). After 30 minutes, the animals were sacrificed by cervical dislocation. Hind limb skeletal muscles were rapidly excised and frozen in liquid nitrogen. Muscle samples were stored at −80° C. until used. The hindlimb muscles were subsequently thawed over an ice pack and plasma membranes were prepared as described by Dombrowaski et al. Thirty μg of protein from the 25% interface of the discontinued sucrose gradient was subjected to SDS-PAGE, transferred to PVDF sheets and incubated with anti-GLUT4 polyclonal primary antibody (1:800), washed and followed by incubation with anti-goat secondary antibody (1:10,000). The bands were detected at 49 kDa. […]
# serum insulin = test: Serum insulin level of diabetic GK rats (ELISA); format: in vivo; conditions: 600 nmole/kg oral, 8 weeks, serum at 30 min of the oral glucose tolerance test, vs control
# Description: Serum from 8 weeks treated animals (as described in EXAMPLE 9) were assayed for insulin concentration by the “Ultra Senstive Rat Insulin ELISA kit” (Crystal Chem. Inc., IL, USA). The values were from serum taken at 30 min of the oral glucose tolerance test.
# The diabetic GK rats described in EXAMPLE 9 were similarly treated for another week. At 9 weeks of treatment, animals were fasted overnight and half the animals in each group were intraperitoneally administered with PBS and the other half with insulin (0.5 U/kg). After 30 minutes, the animals were sacrificed by cervical dislocation. Hind limb skeletal muscles were rapidly excised and frozen in liquid nitrogen. Muscle samples were stored at −80° C. until used. The hindlimb muscles were subsequently thawed over an ice pack and plasma membranes were prepared as described by Dombrowaski et al. Thirty μg of protein from the 25% interface of the discontinued sucrose gradient was subjected to SDS-PAGE, transferred to PVDF sheets and incubated with anti-GLUT4 polyclonal primary antibody (1:800), washed and followed by incubation with anti-goat secondary antibody (1:10,000). The bands were detected at 49 kDa. […] As insulin resistance is the hallmark of diabetes, it is concluded that the des-aspartate-angiotensin I exerts marked hypoglycaemic action in diabetic GK rats by overcoming insulin resistance in these animals.
# [3] = oral 1200 nmole/kg given as a single dose on Day 2 (n = 9), post infection day 11
substance,measurement,setting,value
"des-aspartate-angiotensin I (RVYIHPFHL; Angiotensin-1; UniProt P01019 26-34, looked up, fragment) [endogenous angiotensin peptide derived from angiotensin I by a specific aminopeptidase; purchased from Bachem]",Average Percentage Weight Change,"[1]; oral 1200 nmole/kg given as a single dose on Day 2 (n = 9), post infection day 6",95.7 ± 3.1 %
same,Average Percentage Weight Change,"[1]; oral 1200 nmole/kg given as a single dose on Day 2 (n = 9), post infection day 7",97.8 ± 4.0 %
same,Average Percentage Weight Change,"[1]; oral 1200 nmole/kg given as a single dose on Day 2 (n = 9), post infection day 8",98.3 ± 4.3%
same,Average Percentage Weight Change,"[1]; oral 1200 nmole/kg given as a single dose on Day 2 (n = 9), post infection day 9",101.1 ± 4.7%
same,Average Percentage Weight Change,"[1]; oral 1200 nmole/kg given as a single dose on Day 2 (n = 9), post infection day 10",101.1 ± 4.8%
same,Average Percentage Weight Change,[1]; [3],105.9 ± 1.3%
same,number of animals that died on the day of recording,[1]; [3],1
same,Average Percentage Weight Change,"[1]; oral 1200 nmole/kg given as a single dose on Day 2 (n = 9), post infection day 12",106.1 ± 1.3%
same,Average Percentage Weight Change,"[1]; oral 1200 nmole/kg given as a single dose on Day 2 (n = 9), post infection day 13",108.1 ± 1.2%
same,Average Percentage Weight Change,"[1]; oral 1200 nmole/kg given as a single dose on Day 2 (n = 9), post infection day 14",107.2 ± 1.3%
same,Average Percentage Weight Change,"[1]; oral 1200 nmole/kg given as a single dose on Day 2 (n = 9), post infection day 15",109.4 ± 1.2%
same,Average Percentage Weight Change,"[1]; oral 1200 nmole/kg given as a single dose on Day 2 (n = 9), post infection day 16",108.4 ± 1.5%
same,"antiviral activity (attenuation of weight loss, survival)",[1]; oral single dose of 1200 nmole/kg given on Day 2,Effective antiviral activity
same,Serum glucose level,"diabetic KKAy mice; 200 nmole/kg/day oral (gavage) for 4 weeks, 0 min",8.9 ± 1.0
same,Serum glucose level,"diabetic KKAy mice; 200 nmole/kg/day oral (gavage) for 4 weeks, 30 min",37.7 ± 2.6
same,Serum glucose level,"diabetic KKAy mice; 400 nmole/kg/day oral (gavage) for 4 weeks, 0 min",9.1 ± 1.6
same,Serum glucose level,"diabetic KKAy mice; 400 nmole/kg/day oral (gavage) for 4 weeks, 30 min",26.0 ± 3.6
same,Serum glucose level,"diabetic KKAy mice; 600 nmole/kg/day oral (gavage) for 4 weeks, 0 min",8.9 ± 0.7
same,Serum glucose level,"diabetic KKAy mice; 600 nmole/kg/day oral (gavage) for 4 weeks, 30 min",17.5 ± 1.9
same,hypoglycaemic action,"diabetic KKAy mice; oral dose of 600 nmole/kg/day for 4 weeks, KKAy mice",significant hypoglycaemic action
same,Percentage Weight Change of Individual Mouse,[2]; post infection day 2,96.3% and 97.1% and 96.6% and 97.3% and 95.8% and 99.3% and 99.8%
same,Percentage Weight Change of Individual Mouse,[2]; post infection day 3,90.3% and 94.6% and 88.6% and 94.7% and 93.9% and 99.4% and 99.0%
same,Percentage Weight Change of Individual Mouse,[2]; post infection day 4,85.7% and 86.2% and 83.3% and 92.1% and 90.8% and 97.5% and 96.6%
same,Percentage Weight Change of Individual Mouse,[2]; post infection day 5,82.8% and 85.7% and 81.0% and 90.1% and 89.0% and 90.3% and 91.7%
same,Percentage Weight Change of Individual Mouse,[2]; post infection day 6,80.8% and 82.7% and 78.2% and 85.2% and 88.8% and 87.5% and 87.4%
same,Percentage Weight Change of Individual Mouse,[2]; post infection day 7,80.7% and 76.8% and 73.9% and 82.8% and 84.4% and 85.0% and 83.8%
same,Percentage Weight Change of Individual Mouse,[2]; post infection day 8,79.7% and 72.9% and 71.2% and 83.2% and 82.4% and 86.2% and 80.4%
same,Percentage Weight Change of Individual Mouse,[2]; post infection day 9,81.4% and 69.9% and 71.8% and 80.5% and 78.6% and 90.3% and 78.8%
same,Percentage Weight Change of Individual Mouse,[2]; post infection day 10,80.5% and 69.0% and 73.2% and 82.3% and 77.7% and 93.0% and 77.5%
same,Percentage Weight Change of Individual Mouse,[2]; post infection day 11,82.1% and 67.7% and 75.8% and 88.9% and 74.5% and 99.3% and 77.1%
same,Percentage Weight Change of Individual Mouse,[2]; post infection day 12,80.0% and 64.9% and 80.1% and 88.9% and 74.5% and 101.2% and 78.9%
same,Percentage Weight Change of Individual Mouse,[2]; post infection day 13,76.6% and 63.0% and 82.8% and 97.4% and 72.3% and 80.8%
same,Percentage Weight Change of Individual Mouse,[2]; post infection day 14,75.2% and 61.3% and 86.3% and 102.8% and 74.0% and 82.6%
same,Percentage Weight Change of Individual Mouse,[2]; post infection day 15,83.0% and 58.9% and 90.1% and 76.7% and 84.3%
same,Percentage Weight Change of Individual Mouse,[2]; post infection day 16,90.3% and 58.9% and 94.6% and 78.6% and 89.4%
same,Percentage Weight Change of Individual Mouse,[2]; post infection day 17,93.5%
same,animals survived and regained their original weight,"[2]; i.p. 60 nmole/kg for 7 days, 7 treated animals",Six
same,influenza A virus in the lung homogenate of the surviving mice,"[2]; i.p. 60 nmole/kg for 7 days, assayed in MDCK cells",No influenza A virus was detected
same,Fate of individual mouse (death),"[2]; i.p. 60 nmole/kg for 7 days, treated mouse 4, post infection day 18",died
same,insulin-induced translocation of GLUT4 to the plasma membrane in skeletal muscle,GLUT4,significantly enhances
same,serum level of insulin,serum insulin,not significantly affected
same,serum level of insulin,serum insulin; listed as des-aspartate-angiotesnin I,no significant difference
